We go through five compounds from ChEMBL document CHEMBL4376887, “Rose Bengal-Amphiphilic Peptide Conjugate for Enhanced Photodynamic Therapy of Malignant Melanoma” (J Med Chem, 2020).

SMILES strings stand for the structures. Active and inactive are the calls of the source. No cut-off for these calls is given here.

Series [1] relates to PANC-1. Kind of series: Cytotoxicity against human PANC1 cells assessed as reduction in cell viability up to 1 uM incubated for 24 hrs under dark condition by MTT assay. It counts as cell-based. The following applies: panc-1, 24 h.
Series [2] deals with B16-F10-luc2. As to the kind of experiment: Antitumor activity against mouse B16-F10-luc2 cells implanted in SCID mouse assessed as tumor volume at 100 uM, iv administered 30 mins prior to 68.4 J cm'-2 light irradiation for 3 mins on day 1, 2, 7, and 9 measured for 12 days relative to control. The format is functional.
The nature of series [3]: Induction of ROS generation in ethanol assessed as reduction in DPBF absorbance at 410 nm at 1 uM preincubated for 10 mins followed by 342 J cm'-2 light irradiation for 15 mins and measured at 5 mins interval for 15 mins by spectrometric method. The format is functional.
Series [4] has as its system B16-F10-luc2. As to the kind of experiment: Photo-activated cytotoxicity against mouse B16-F10-luc2 cells assessed as cell viability at 1 uM preincubated for 3 hrs followed by compound washout and subsequent 22.8 J cm'-2 light irradiation for 60 secs measured after 21 hrs by MTT assay relative to control. The note with it: B16-F10-luc2, light or radiation study, read-out: Activity. It counts as functional. Background: Formazan colour is commonly taken as a measure of viable cells.

Series [5] deals with MCF7. As to the kind of experiment: Cytotoxicity against human MCF7 cells assessed as reduction in cell viability up to 1 uM incubated for 24 hrs under dark condition by MTT assay. The note with it: mcf7, 24 h. The format is cell-based.
The subject of series [6] is B16-F10-luc2. As to the kind of experiment: Antitumor activity against mouse B16-F10-luc2 cells implanted in SCID mouse assessed as reduction in tumor growth at 100 uM, iv administered 30 mins prior to 68.4 J cm'-2 light irradiation for 3 mins on day 1, 2, 7, and 9 measured on day 13. It counts as functional, organism-based.
Series [7] in a line: Cytotoxicity against mouse B16-F10-luc2 cells assessed as cell viability at 1 uM incubated for 24 hrs under dark condition by MTT assay relative to control. The note with it: read-out: Activity. The format is cell-based.
A short description of series [8]: Induction of singlet oxygen generation in ethanol at 1 uM preincubated for 10 mins followed by 342 J cm'-2 light irradiation for 15 mins and measured at 5 mins interval for 15 mins by spectrometric method. It counts as functional.
The test system of series [9] is HeLa. As to the kind of experiment: Photo-activated cytotoxicity against human HeLa cells assessed as reduction in cell viability preincubated for 4 hrs followed by compound washout and subsequent 3.3 mW cm'-2 light irradiation for 24 mins measured after 48 hrs by MTT assay. The format is functional, cell-based. The note with it: light or radiation study.
In series [10] the test system is B16-F10-luc2. Kind of series: Induction of reactive oxygen species generation in mouse B16-F10-luc2 cells at 10 uM preincubated for 3 hrs followed by compound washout prior to […] addition for 1 hr and subsequent 22.8 J cm'-2 light irradiation for 60 secs post media washout and measured immediately by fluorescence assay. The format is functional, cell-based.
Series [11] concerns B16-F10-luc2. As to the kind of experiment: Induction of apoptosis in mouse B16-F10-luc2 cells assessed as increase in necrotic cells at 1 uM measured after 24 hrs by Alexa Fluor 488 Annexin V/Dead Cell staining based flow cytometry. The format is functional. For orientation: A flow cytometer gives signals particle by particle.
Series [12] relates to B16-F10-luc2. Kind of series: Induction of apoptosis in mouse B16-F10-luc2 cells assessed as decrease in viable cells at 1 uM preincubated for 3 hrs followed by compound washout and subsequent 22.8 J cm'-2 light irradiation for 60 secs measured after 21 hrs by Alexa Fluor 488 Annexin V/Dead Cell staining based flow cytometry. The format is functional.
The subject of series [13] is PANC-1. Kind of series: Photo-activated cytotoxicity against human PANC1 cells assessed as reduction in cell viability up to 1 uM preincubated for 3 hrs followed by compound washout and subsequent 22.8 J cm'-2 light irradiation for 60 secs measured after 21 hrs by MTT assay. It counts as functional, cell-based.
In series [14] the test system is B16-F10-luc2. As to the kind of experiment: Induction of apoptosis in mouse B16-F10-luc2 cells assessed as decrease in viable cells at 1 uM measured after 24 hrs by Alexa Fluor 488 Annexin V/Dead Cell staining based flow cytometry. It counts as functional.
Series [15] concerns B16-F10-luc2. As to the kind of experiment: Induction of apoptosis in mouse B16-F10-luc2 cells assessed as increase in late apoptotic cells at 1 uM measured after 24 hrs by Alexa Fluor 488 Annexin V/Dead Cell staining based flow cytometry. The format is functional.
For series [16], the system named is B16-F10-luc2. Kind of series: Photo-activated cytotoxicity against mouse B16-F10-luc2 cells assessed as reduction in cell viability preincubated for 3 hrs followed by compound washout and subsequent 22.8 J cm'-2 light irradiation for 60 secs measured after 21 hrs by MTT assay. The following applies: B16-F10-luc2, light or radiation study. The format is functional, cell-based.

The subject of series [17] is B16-F10-luc2. As to the kind of experiment: Antitumor activity against mouse B16-F10-luc2 cells implanted in SCID mouse assessed as tumor growth at 100 uM, iv administered 30 mins prior to 68.4 J cm'-2 light irradiation for 3 mins on day 1, 2, 7, and 9 measured for 12 days relative to control. The format is functional.
Series [18] is described as follows: Toxicity in mouse B16-F10-luc2 cells implanted SCID mouse assessed as effect on body weight at 100 uM, iv administered 30 mins prior to 68.4 J cm'-2 light irradiation for 3 mins on day 1, 2, 7, and 9. The format is organism-based. The following applies: in vivo, 0.05 h.
Series [19] has as its system B16-F10-luc2. Kind of series: Antitumor activity against mouse B16-F10-luc2 cells implanted in SCID mouse assessed as tumor growth at 100 uM, iv administered on day 1, 2, 7, and 9 measured for 12 days relative to control. The format is functional.
In series [20] the test system is B16-F10-luc2. Kind of series: Induction of apoptosis in mouse B16-F10-luc2 cells assessed as increase in necrotic cells at 1 uM preincubated for 3 hrs followed by compound washout and subsequent 22.8 J cm'-2 light irradiation for 60 secs measured after 21 hrs by Alexa Fluor 488 Annexin V/Dead Cell staining based flow cytometry. It counts as functional.
Series [21] can be described thus: Acute toxicity in mouse B16-F10-luc2 cells implanted SCID mouse at 100 uM, iv administered 30 mins prior to 68.4 J cm'-2 light irradiation for 3 mins on day 1, 2, 7, and 9. The format is organism-based. The following applies: in vivo, 0.05 h.
For series [22], the system named is B16-F10-luc2. As to the kind of experiment: Induction of apoptosis in mouse B16-F10-luc2 cells assessed as increase in late apoptotic cells at 1 uM preincubated for 3 hrs followed by compound washout and subsequent 22.8 J cm'-2 light irradiation for 60 secs measured after 21 hrs by Alexa Fluor 488 Annexin V/Dead Cell staining based flow cytometry. The format is functional.

The test system of series [23] is HeLa. Kind of series: Photo-activated cytotoxicity against human HeLa cells assessed as reduction in cell viability preincubated for 3 hrs followed by compound washout and subsequent 22.8 J cm'-2 light irradiation for 60 secs measured after 21 hrs by MTT assay. The format is functional, cell-based. The note with it: light or radiation study.
Series [24] is described as follows: Drug uptake in mouse B16-F10-luc2 cells assessed as increase in fluorescence intensity at 10 uM measured after 3 hrs by confocal laser scanning microscopic analysis relative to RB. The format is ADME, cell-based. The note with it: b16-f10-luc2, 3 h.
In series [25] the test system is MCF7. As to the kind of experiment: Photo-activated cytotoxicity against human MCF7 cells assessed as reduction in cell viability up to 1 uM preincubated for 3 hrs followed by compound washout and subsequent 22.8 J cm'-2 light irradiation for 60 secs measured after 21 hrs by MTT assay. It counts as functional, cell-based.

Take `O=C([O-])c1c(Cl)c(Cl)c(Cl)c(Cl)c1-c1c2cc(I)c(=O)c(I)c-2oc2c(I)c([O-])c(I)cc12.[Na+].[Na+]` [ROSE BENGAL SODIUM]: the Activity result was “Active” with PANC-1 [1], 502% in the series on B16-F10-luc2 [2] and “Active” in the series on MCF7 [5]. Moreover, the result (in series [3]; in the series on B16-F10-luc2 [6]) was Active. The viability at 1 µM with B16-F10-luc2 [4] is 69%.

Regarding `C=Cc1c(C)c2cc3[nH]c(cc4nc(cc5nc(cc1[nH]2)C(C)=C5CCC(=O)N[C@@H](CS)C(=O)N[C@@H](CCCCN)C(=O)N[C@@H](CC(C)C)C(=O)N[C@@H](C)C(=O)N[C@@H](CCCCN)C(=O)N[C@@H](CC(C)C)C(=O)N[C@@H](C)C(=O)N[C@@H](CCCCN)C(=O)N[C@@H](CCCCN)C(=O)N[C@@H](CC(C)C)C(=O)N[C@@H](C)C(=O)N[C@@H](CCCCN)C(=O)N[C@@H](CC(C)C)C(=O)N[C@@H](C)C(=O)N[C@@H](CCCCN)C(N)=O)C(CCC(=O)O)=C4C)c(C)c3C=C`, the viability at 24 h, 1 µM in series [7] came to 46%. Moreover, in the series with B16-F10-luc2 [4], the viability at 1 µM came out at 38%.

On to `O=C(O)CCCCCCCOC(=O)c1c(Cl)c(Cl)c(Cl)c(Cl)c1-c1c2cc(I)c(=O)c(I)c-2oc2c(I)c(O)c(I)cc12`, for which the result in series [8] and in series [3] was Active. The viability at 1 µM with B16-F10-luc2 [4] is 62%.

As a reminder, the IC50 is the concentration that gives 50% inhibition. Consider `C=Cc1c(C)c2cc3[nH]c(cc4nc(cc5nc(cc1[nH]2)C(C)=C5CCC(=O)O)C(CCC(=O)O)=C4C)c(C)c3C=C`, for which the 50% inhibitory concentration (IC50) in the series on HeLa [9] stood at 1610 nM.

In the case of `CC(C)C[C@H](NC(=O)[C@H](CCCCN)NC(=O)[C@H](C)NC(=O)[C@H](CC(C)C)NC(=O)[C@H](CCCCN)NC(=O)[C@H](CCCCN)NC(=O)[C@H](C)NC(=O)[C@H](CC(C)C)NC(=O)[C@H](CCCCN)NC(=O)[C@H](C)NC(=O)[C@H](CC(C)C)NC(=O)[C@H](CCCCN)NC(=O)[C@H](CS)NC(=O)CCCCCCCOC(=O)c1c(Cl)c(Cl)c(Cl)c(Cl)c1-c1c2cc(I)c(=O)c(I)c-2oc2c(I)c(O)c(I)cc12)C(=O)N[C@@H](C)C(=O)N[C@@H](CCCCN)C(N)=O`, the outcome with B16-F10-luc2 [10], in the series with B16-F10-luc2 [11], in the series on B16-F10-luc2 [12], in the series on PANC-1 [13], in the series on B16-F10-luc2 [14] and in the series with B16-F10-luc2 [15] was Active. The outcome (in the series with B16-F10-luc2 [20]; in series [8]; in the series with B16-F10-luc2 [22]; in series [3]; in the series on B16-F10-luc2 [6]; with MCF7 [25]) was Active. The half-maximal inhibitory concentration (IC50) in the series on B16-F10-luc2 [16] came to 310 nM; with HeLa [23], 290 nM. The Activity with B16-F10-luc2 [17] is 23%; in series [18], “Non-Toxic”; in the series on B16-F10-luc2 [19], 573%; in the series with PANC-1 [1] it was “Active”; in series [21], “Non-Toxic”; in the series on MCF7 [5] it was “Active”. For the same compound, the viability at 24 h, 1 µM in series [7] was determined as 69%. For the same compound, in the series on B16-F10-luc2 [4], the viability at 1 µM stood at 6%. In addition, the Drug uptake in series [24] is reported as 69%.
